The source of these data is US20240407385A1, “HIGH PURITY PHYLLODULCIN EXTRACT” (SYMRISE AG, priority 2021, published 2024).

The nature of this assay: Sensory evaluation of sweetness compared with pure (R)-phyllodulcin (Example 4). The class given is in vivo. Conditions: dose 5 mg/kg; panel n=20. The procedure: Two samples (samples 1 and 2) were prepared by a method according to the invention. Particularly, the leaf material was extracted two times with ethyl acetate (in an amount of 5 times of the weight of the leaf material) and wherein the precipitation was performed with ethanol at 10° C. Furthermore, the solid was washed with ethanol (in an amount of 3 times of the weight of the solid) at 5° C.
Sample 3 was extracted from leaf material, however, no precipitation was performed.
The samples were then compared with the pure substance (R)-phyllodulcin with regard to their sensory evaluation.

Compound `COc1ccc([C@H]2Cc3cccc(O)c3C(=O)O2)cc1O` [(R)-phyllodulcin, (3R)-8-Hydroxy-3-(3-hydroxy-4-methoxyphenyl)-3,4-dihydro-1 H-isochromen-1-one] showed a Sweetness of 27.0%.
